Data as given in US20260263445A1, “TGF-BETA INHIBITOR FOR USE IN THE TREATMENT OF DEDIFFERENTIATED LIPOSARCOMA” (Institut Curie, priority 2023, published 2026).

Tests used:
TGFβ pathway = test: Ex vivo inhibition of TGFβ pathway in DDLPS PDX Sil10AS; assay type: cell-based, human
Excerpt: Tests and assays for determining whether a compound is a TGFβ inhibitor are well known by the skilled person in the art such as described in Frey et al., 2022; Szymańska et al., 2020. Determining whether a compound is a TGFβ inhibitor may also be performed using by using recombinant TGFβ proteins, competitive binding assays and measuring the binding affinities, measuring activated TGF-β complexes with other factors to form a serine/threonine kinase complex that binds to TGF-β receptors. […] In another particular embodiment, a TGFβ inhibitor according to the invention is at least as effective as galunisertib and/or as SB431542 in reducing phosphorylation level of SMAD2 and/or SMAD3 protein. Antibodies and/or kits to detect and quantify said phosphorylation level are well known from the skilled in the art and are commercially available.
(§1) The inventors also investigated the role of TGFβ in adipocytic differentiation in DDLPS, particularly advanced DDLPS using several TGFβ inhibitors, of a different mode of action and of different nature, such as compounds selected from the group consisting of TGFβ receptor R1/R2 inhibitors LY2109761 and LY364947; monoclonal anti-TGFβ antibodies BX-BE0057 and fresolimumab; TGFβ ligand trap such as luspatercept (a fusion protein that traps TGFβ ligands preventing them from binding to Type II TGFβ receptors) and bintrafusp alfa (a Bifunctional Fusion Protein Targeting TGF-β and PD-L1) and TQB2858 (an anti-TGF-β/PD-L1 antibody).

[1] = tested on: DD tumor cells from 2 DDLPS PDX models; test: Ex vivo adipocytic differentiation of DD tumor cells from DDLPS PDX models; assay type: cell-based, human; details: ex vivo/in vitro, transcriptomic and phenotypic level
Excerpt: DDLPS tumor cells keep the multipotent properties of their progenitors. […] Adipocytic differentiation is confirmed with the detection of green vacuoles (Bodipy staining) and osteogenic differentiation by red staining after Alizarin red treatment (Data not shown).
as §1

DDLPS PDX Sil10AS = test: Nude mice engrafted with DDLPS PDX Sil10AS: tumor growth and differentiation; assay type: in vivo
Protocol: 7 nude mice engrafted with the DDLPS PDX Sil10AS are treated with TGFβ inhibitor galunisertib. The tumor growth rate is compared to a control group of 7 nude mice engrafted with the same PDX model and treated with a vehicle. At the end of the experiment, tumor differentiation are assessed at the microscopic and transcriptomic level.

Row | Molecule | inhibiting ex vivo TGFβ pathway, compared with galunisertib or SB431542 (TGFβ pathway) | adipocytic differentiation of DD tumor cells [1] | adipocytic differentiation of DD cells in treated PDX (DDLPS PDX Sil10AS; DDLPS PDX in nude mice, assessed at the microscopic and transcriptomic level at end of experiment) | tumor growth (DDLPS PDX Sil10AS; nude mice engrafted with DDLPS PDX Sil10AS, compared with vehicle group)
1 | c1ccc(-c2[nH]ncc2-c2ccnc3ccccc23)nc1 [LY364947] | at least as effective than galunisertib or SB431542 | restore adipocytic differentiation phenotype |  | 
2 | c1ccc(-c2nn3c(c2-c2ccnc4cc(OCCN5CCOCC5)ccc24)CCC3)nc1 [LY2109761] | at least as effective than galunisertib or SB431542 | restore adipocytic differentiation phenotype |  | 
3 | NC(=O)c1ccc(-c2nc(-c3ccc4c(c3)OCO4)c(-c3ccccn3)[nH]2)cc1 [SB431542] |  | restores adipocytic differentiation |  | 
4 | Cc1cccc(-c2nn3c(c2-c2ccnc4ccc(C(N)=O)cc24)CCC3)n1 [galunisertib] |  | restores adipocytic differentiation | restore adipocytic differentiation | reduce tumor growth
5 | TGFβ |  | prevented |  | 
6 | fresolimumab: monoclonal anti-TGFβ antibody; CAS 948564-73-6 | at least as effective than galunisertib or SB431542 | restore adipocytic differentiation phenotype |  | 
7 | bintrafusp alfa: Bifunctional Fusion Protein Targeting TGF-β and PD-L1; CAS 1918149-01-5 (antibody, chains of the INN, looked up, V domains shown) VH: EVQLLESGGGLVQPGGSLRLSCAASGFTFSSYIMMWVRQAPGKGLEWVSSIYPSGGITFYADTVKGRFTISRDNSKNTLYLQMNSLRAEDTAVYYCARIKLGTVTTVDYWGQGTLVTVSS VL: QSALTQPASVSGSPGQSITISCTGTSSDVGGYNYVSWYQQHPGKAPKLMIYDVSNRPSGVSNRFSGSKSGNTASLTISGLQAEDEADYYCSSYTSSSTRVFGTGTKVTVL | at least as effective than galunisertib or SB431542 | restore adipocytic differentiation phenotype |  | 
